Broadly, the IC50 is the concentration needed to halve the response being measured. Usually EC50 stands for the concentration at which the effect is half-maximal.

The target of experiment [1] is PI3-kinase p110-delta/p85-alpha (Homo sapiens, UniProt O00329). The experiment is described as follows: Inhibition of N-terminal His6-tagged recombinant full-length human p110delta/untagged recombinant full length p85alpha expressed in baculovirus infected Sf21 cells using phosphatidylinositol as substrate in presence of gamma-32P-ATP after 5 mins by thin layer chromatographic method.
Sequence of PI3-kinase p110-delta/p85-alpha (P27986 whole entry): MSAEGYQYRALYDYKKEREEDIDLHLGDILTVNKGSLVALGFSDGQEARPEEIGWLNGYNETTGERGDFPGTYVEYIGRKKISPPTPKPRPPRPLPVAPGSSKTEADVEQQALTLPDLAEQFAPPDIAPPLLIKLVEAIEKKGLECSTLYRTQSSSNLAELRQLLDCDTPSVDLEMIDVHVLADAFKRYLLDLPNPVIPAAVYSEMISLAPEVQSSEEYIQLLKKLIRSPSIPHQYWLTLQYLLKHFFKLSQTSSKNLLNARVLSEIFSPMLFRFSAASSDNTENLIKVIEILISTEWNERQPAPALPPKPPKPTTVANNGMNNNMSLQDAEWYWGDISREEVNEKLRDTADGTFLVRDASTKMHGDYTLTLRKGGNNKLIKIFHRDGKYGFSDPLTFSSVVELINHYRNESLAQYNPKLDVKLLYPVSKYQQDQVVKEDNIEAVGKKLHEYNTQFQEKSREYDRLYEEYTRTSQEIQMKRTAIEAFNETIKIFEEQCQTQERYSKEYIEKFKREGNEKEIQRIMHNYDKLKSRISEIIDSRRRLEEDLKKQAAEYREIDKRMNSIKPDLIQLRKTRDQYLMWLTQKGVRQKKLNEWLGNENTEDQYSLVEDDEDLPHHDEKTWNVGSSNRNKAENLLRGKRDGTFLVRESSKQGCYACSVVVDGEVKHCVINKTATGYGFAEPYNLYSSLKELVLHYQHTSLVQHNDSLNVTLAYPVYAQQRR
Sequence of PI3-kinase p110-delta/p85-alpha (O00329 whole entry): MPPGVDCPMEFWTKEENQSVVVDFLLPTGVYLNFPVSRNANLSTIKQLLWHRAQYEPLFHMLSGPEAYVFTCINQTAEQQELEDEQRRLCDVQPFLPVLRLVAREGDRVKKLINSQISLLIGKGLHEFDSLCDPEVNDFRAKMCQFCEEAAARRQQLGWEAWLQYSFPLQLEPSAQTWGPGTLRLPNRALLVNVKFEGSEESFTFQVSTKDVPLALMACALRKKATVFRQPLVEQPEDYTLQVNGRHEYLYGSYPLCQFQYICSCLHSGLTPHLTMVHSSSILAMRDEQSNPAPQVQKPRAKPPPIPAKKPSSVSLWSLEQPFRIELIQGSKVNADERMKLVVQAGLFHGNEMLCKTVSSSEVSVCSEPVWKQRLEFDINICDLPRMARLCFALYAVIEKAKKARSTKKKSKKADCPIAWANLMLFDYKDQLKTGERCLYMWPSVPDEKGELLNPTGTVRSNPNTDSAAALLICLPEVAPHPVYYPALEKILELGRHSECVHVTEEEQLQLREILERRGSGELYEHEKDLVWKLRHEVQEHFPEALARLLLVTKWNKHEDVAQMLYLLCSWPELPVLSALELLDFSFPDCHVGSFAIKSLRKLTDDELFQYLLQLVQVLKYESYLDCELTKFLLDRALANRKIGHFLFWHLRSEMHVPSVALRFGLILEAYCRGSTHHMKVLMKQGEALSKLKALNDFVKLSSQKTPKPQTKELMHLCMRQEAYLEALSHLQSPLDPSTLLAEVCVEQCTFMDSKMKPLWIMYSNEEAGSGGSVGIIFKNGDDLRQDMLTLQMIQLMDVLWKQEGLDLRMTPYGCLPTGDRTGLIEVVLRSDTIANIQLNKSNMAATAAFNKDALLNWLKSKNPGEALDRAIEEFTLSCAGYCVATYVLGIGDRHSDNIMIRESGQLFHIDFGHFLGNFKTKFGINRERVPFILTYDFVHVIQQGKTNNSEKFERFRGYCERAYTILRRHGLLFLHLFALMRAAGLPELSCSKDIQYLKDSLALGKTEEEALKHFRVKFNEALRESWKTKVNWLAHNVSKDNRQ

The nature of experiment [2]: Antiproliferative activity against Balb/c mouse splenic B cells preincubated for 30 mins followed by LPS or F(ab')2 donkey anti-mouse IgM and recombinant mouse IL4 stimulation measured after 72 hrs by Alamar Blue reduction assay. The class given is functional, cell-based.

With `CNC(=O)c1cccc(-c2nn(Cc3cc4cccc(C)c4c(=O)n3-c3ccccc3C)c3ncnc(N)c23)c1`, the IC50 in experiment [1] was less than 10 µM.
Turning to `Cc1ccccc1-n1c(Cn2nc(C(N)=O)c3c(N)ncnc32)cc2cccc(C)c2c1=O`, the 50% effective concentration (EC50) in experiment [2] is less than 0.1 µM.
`Cc1cccc(C)c1-n1c(CNc2ncnc3[nH]cnc23)cc2cccc(C)c2c1=O`: the IC50 in experiment [1] was less than 0.1 µM.
Consider `Cc1cccc2cc(Cn3nc(-c4cn[nH]c4)c4c(N)ncnc43)n(-c3ccccc3C(F)(F)F)c(=O)c12`, for which, in experiment [1], the half-inhibitory concentration (IC50) was less than 0.1 µM. The EC50 in experiment [2] is less than 0.1 µM.
Turning to `Cc1cccc2cc([C@@H](C)Nc3ncnc4[nH]cnc34)n(C3CCC3)c(=O)c12`, the concentration for a half-maximal effect (EC50) in experiment [2] is less than 10 µM.
As to `Cc1ccccc1-n1c(Cn2nc(-c3cccc(O)c3)c3c(N)nccc32)cc2cccc(C)c2c1=O`, in experiment [1], the IC50 was less than 0.1 µM. In addition, in experiment [2], the EC50 was less than 1 µM.
With `Cc1cccc2cc(C(C)Nc3ncnc4[nH]cnc34)n(C3CC3)c(=O)c12` (stereo unspecified), the EC50 in experiment [2] is less than 0.1 µM.
In the case of `Cc1cccc2cc(C(C)Nc3ncnc4[nH]cnc34)n(CCN3CCCC3)c(=O)c12` (stereo unspecified), the IC50 in experiment [1] is less than 0.1 µM. Further, the EC50 in experiment [2] was less than 0.1 µM.
`Cc1cccc2cc(Cn3nc(-c4cc(O)cc(F)c4)c4c(N)ncnc43)n(C)c(=O)c12`: the 50% inhibitory concentration (IC50) in experiment [1] was less than 0.1 µM. Besides, the EC50 in experiment [2] was less than 0.1 µM.
Take `Nc1ncnc2c1c(I)nn2Cc1cc2cccc(Cl)c2c(=O)n1C1CC1`: the IC50 in experiment [1] was less than 0.1 µM. The EC50 in experiment [2] was less than 0.1 µM.
For `Cc1cccc2cc([C@H](C)Nc3nc(Cl)ncc3Cl)n(-c3ccccc3)c(=O)c12`, the EC50 in experiment [2] was less than 0.1 µM.
As for `CC(C)n1c(Cn2nc(I)c3c(N)ncnc32)cc2cccc(F)c2c1=O`, the IC50 in experiment [1] is less than 10 µM.
Regarding `Cc1cccc2cc([C@@H](C)Nc3ncnc4[nH]cnc34)n(C3CC3)c(=O)c12`, the EC50 in experiment [2] was greater than 10 µM.
Still for that read-out and setting: the same measure for `Nc1ncnc2c1c(-c1ccc(Cl)c(O)c1)nn2Cc1cc2cccc(I)c2c(=O)n1C1CCCC1`: less than 10 µM; for `Nc1ncnc2c1c(I)nn2Cc1cc2cccc(I)c2c(=O)n1C1CCCC1`: less than 10 µM.
With `Cc1cccc2cc([C@H](C)Nc3nc(N)ncc3Cl)n(C3CC3)c(=O)c12`, the IC50 in experiment [1] is less than 0.1 µM.
Take `CC(C)n1c(Cn2nc(-c3cccc(O)c3)c3c(N)ncnc32)cc2cccc(F)c2c1=O`: in experiment [2], the EC50 was less than 1 µM.
For the molecule `Cc1ccccc1-n1c(Cn2nc(C(=O)NO)c3c(N)ncnc32)cc2cccc(C)c2c1=O`, the EC50 in experiment [2] is less than 0.1 µM.
Still for that read-out and setting: for `Cc1cccc2cc([C@@H](C)Nc3ncnc4[nH]cnc34)n(-c3ccccc3)c(=O)c12` the value was less than 1 µM.
`Cc1cccc2cc([C@H](C)Nc3ncnc4ccccc34)n(-c3ccccc3)c(=O)c12`: in experiment [1], the IC50 was less than 0.1 µM.
Take `COc1ccc(-c2nn(Cc3cc4cccc(C)c4c(=O)n3-c3ccccc3F)c3ncnc(N)c23)cc1`: the EC50 in experiment [2] was less than 1 µM.
Turning to `CC(Nc1ncnc2[nH]cnc12)c1cc2cccc(Cl)c2c(=O)n1-c1ccccc1` (stereo unspecified), in experiment [2], the EC50 is less than 0.1 µM.
Regarding `Cc1cccc2cc(C(C)Nc3ncnc4[nH]cnc34)n(-c3ccccc3)c(=O)c12` (stereo unspecified), the EC50 in experiment [2] was less than 0.1 µM.
Take `C[C@H](Nc1ncnc2nc[nH]c12)c1cc2cccc(Cl)c2c(=O)n1-c1ccccc1` [DUVELISIB]: the EC50 in experiment [2] is less than 0.1 µM.
On to `Cc1ccccc1-n1c(Cn2nc(-c3ccc(CN)cc3)c3c(N)ncnc32)cc2cccc(C)c2c1=O`, for which the IC50 in experiment [1] is less than 10 µM.
With `CCC(Nc1ncnc2[nH]cnc12)c1cc2cccc(C)c2c(=O)n1C1CCN(C)CC1` (stereo unspecified), in experiment [2], the EC50 was less than 0.1 µM.
In the case of `Nc1ncnc2c1c(I)nn2Cc1cc2cccc(F)c2c(=O)n1-c1ccccc1F`, in experiment [1], the IC50 is less than 10 µM.
As for `C=C(C)c1nn(Cc2cc3cccc(C)c3c(=O)n2-c2ccccc2)c2ncnc(N)c12`, in experiment [1], the IC50 is less than 0.1 µM.
As for `Nc1ncnc2c1c(-c1cccc(O)c1)nn2Cc1cc2cccc(F)c2c(=O)n1-c1ccccc1F`, the IC50 in experiment [1] was less than 1 µM.
Still for that read-out and setting: the same measure for `Cc1cccc2cc([C@H](C)Nc3ncnc4[nH]nc(Cl)c34)n(C3CC3)c(=O)c12`: less than 0.1 µM; for `Cc1cccc2cc([C@H](C)Nc3nc(N)ncc3F)n(-c3ccccc3)c(=O)c12`: less than 0.1 µM.

The values are drawn from ChEMBL document CHEMBL3879901, “Substituted isoquinolin-1(2H)-ones, and methods of use thereof” (2012).
